Patent publication US20260078120A1, “SUBSTITUTED PYRIDOPYRIMIDINONES” (MIRATI THERAPEUTICS, INC., priority 2022, published 2026)

Key:
Assay type in all cases: cell-based
[1] = system: MKN1 (PI3Kα E545K mutant) cells; experiment: CellTiter-Glo 2.0 luminescent cell viability assay, 72 hours, MKN1 cells; conditions: Homo sapiens
Experimental: This Example illustrates that exemplary compounds of the present invention decrease the viability of cells.
The ability of a compound of Formula (I) to decrease the viability of cells was measured using CellTiter-Glo 2.0 (CTG) Luminescent Cell Viability Assay (#G9241) obtained from Promega (Madison, WI).
To prepare assay plates for viability assays, cells were trypsinized, resuspended in fresh media, and viable cells were counted utilizing trypan blue exclusion. T47D, SKBR3, or MKN1 cells were seeded at 1000 cells in 30 μl per well in a solid white flat bottom 384 cell culture plate (Perkin Elmer #6007680) and incubated at 37° C. overnight.
Assay day 1, cells were dosed using an Echo Liquid Handler (Beckman Coulter) with compounds at a 10 um starting concentration and serially diluted (1:4) for a total of 10 concentrations. Cells were incubated for approximately 72 hours with the compounds (solubilized in DMSO) at 37° C. After 72 hours of treatment, cell plates were equilibrated to room temperature before adding 15 μl of CTG to each well, plates were then covered in aluminum foil to protect from light, incubated at room temperature for 30 minutes on a microtiter plate shaker, and luminescence readings were collected using a CLARIOstar microplate reader (BMG Labtech, Germany). Percent of vehicle control values were plotted as log (inhibitor) vs. response-Variable slope (four parameters) for curve fitting and IC50 values were determined using XLfit.

[2] = system: SKBR3 (PI3Kα wild type) cells; experiment: CellTiter-Glo 2.0 luminescent cell viability assay, 72 hours, SKBR3 cells; conditions: Homo sapiens, SK-BR-3, 72 h
Procedure, shortened: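 Viability measured via CTG luminescence following roughly 72 hours of compound exposure at 37° C. Dosing used a 10 um starting concentration diluted 1:4 over 10 points; percent-of-vehicle data fitted with a variable-slope four-parameter model for IC50.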

[3] = system: SKBR3 (PI3Kα wild type) cells; experiment: Inhibition of pAKT formation, alphaLISA SureFire Ultra AKT 1/2/3 (pS473), SKBR3 cells; conditions: Homo sapiens, SK-BR-3; Inhibition of pAKT in SKBR3 (PI3Kα wild type) cells; read-out: SKBR3 (WT) pAKT IC50 (nM) (H1047R mutant) IC50
Experimental: (§1) The ability of a compound of Formula (I) to inhibit the formation of pAKT was measured using alphaLISA Surefire Ultra AKT 1/2/3 (pS473) Assay Kit (#ALSU-PAKT-B50K) was obtained from Perkin Elmer (Waltham, MA).
(§2) To prepare assay plates for pAKT alphaLISA assays, cells were trypsinized, resuspended in fresh media, and viable cells were counted utilizing trypan blue exclusion. Prior to seeding, cells were washed with PBS and resuspended in HBSS (Gibco, #14025092). T47D (12,000/w), SKBR3(12,000/w), or MKN1(24,000/w) cells were seeded at 12 μl per well in a solid white flat bottom 384 cell culture plate (Perkin Elmer #6007680).
(§3) Immediately after seeding, cells were dosed using an Echo Liquid Handler (Beckman Coulter) with compounds at a […] starting concentration and serially diluted (1:4) for a total of 10 concentrations. […] Cells were incubated with the compounds (solubilized in DMSO) for approximately one hour or 24 hours at 37° C. After one hour (or 24 hours) of treatment, cells were lysed with 3 μl of the 5× lysis buffer (provided and incubated at room temperature for 15 min on a microtiter plate shaker). Once cells were sufficiently lysed, 7.5 μl of the acceptor bead mix (made using the manufacturers recommended dilutions) was added to each well and left on the microtiter plate shaker for 1 min prior to incubating plates at room temperature for one hour, in the absence of light. After one hour of incubation with the acceptor bead mix, 7.5 μl of the donor bead mix (made using the manufacturers recommended dilutions) was added to each well and left on the microtiter plate shaker for 1 min prior to incubating plates at room temperature overnight in the absence of light. Plates were then imaged the following day using a CLARIOstar microplate reader (BMG Labtech, Germany).
(§4) Percent of control values were calculated by subtracting the average signal from the positive control (alpelisib) treated wells from all treated wells (including DMSO control wells) and then divided by the average signal from the vehicle DMSO treated control wells. Percent of vehicle control values were plotted as log (inhibitor) vs. response-Variable slope (four parameters) for curve fitting and IC50 values were determined using XLfit.
(§5) Key: N.D. =not determined

[4] = system: MKN1 (PI3Kα E545K mutant) cells; experiment: Inhibition of pAKT formation, alphaLISA SureFire Ultra AKT 1/2/3 (pS473), MKN1 cells; conditions: Homo sapiens
Experimental: as §1, §2, §3, §4, §5

[5] = system: T47D (PI3Kα H1047R mutant) cells; experiment: CellTiter-Glo 2.0 luminescent cell viability assay, 72 hours, T47D cells; conditions: Homo sapiens, T47D, 72 h
Procedure, shortened: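 Cells seeded at 1000 per well overnight were dosed with a 10-concentration, 1:4 series starting at 10 µM and incubated ~72 h at 37° C. Viability was read by CellTiter-Glo 2.0 luminescence after 30 min at room temperature. IC50 came from four-parameter fits of percent vehicle control.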

[6] = system: T47D (PI3Kα H1047R mutant) cells; experiment: Inhibition of pAKT formation, alphaLISA SureFire Ultra AKT 1/2/3 (pS473), T47D cells; conditions: Homo sapiens, T47D
Procedure, shortened: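 T47D cells (12,000/well) in HBSS were dosed with compound at 10 concentrations (10.4 μM top, 1:4 dilutions) for about 1 h or 24 h at 37 °C, then lysed. pS473 AKT was read by alphaLISA. Signals were normalized to alpelisib and DMSO controls, and IC50 came from a four-parameter fit.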

[7] = MKN-1, 72 h, read-out: MKN1 (E545K) Viability IC50 (nM)
[8] = read-out: SKBR3 (WT) Viability IC50 (nM)
[9] = MKN-1, read-out: MKN1 (E545K) pAKT IC50 (nM)
[10] = read-out: T47D (H1047R mutant) Viability IC50 (nM)
[11] = read-out: T47D pAKT (H1047R mutant) IC50 (nM)
[12] = MKN-1, MKN1 (PI3Kα E545K mutant) cells, CellTiter-Glo, approximately 72 hours, read-out: MKN1 (E545K) Viability IC50
[13] = SKBR3 (PI3Kα wild type) cells, CellTiter-Glo, approximately 72 hours, read-out: SKBR3 (WT) Viability IC50
[14] = MKN-1, MKN1 (PI3Kα E545K mutant) cells, inhibition of pAKT (pS473) formation, approximately one hour or 24 hours treatment, read-out: MKN1 (E545K) pAKT IC50
[15] = T47D (PI3Kα H1047R mutant) cells, CellTiter-Glo, approximately 72 hours, read-out: T47D (H1047R mutant) Viability IC50
[16] = T47D (PI3Kα H1047R mutant) cells, inhibition of pAKT (pS473) formation, approximately one hour or 24 hours treatment, read-out: T47D pAKT (H1047R mutant) IC50

Row | Structure (SMILES) | IC50 [3] | IC50 [1, 12] | IC50 [2, 13] | IC50 [4, 14] | IC50 [5, 15] | IC50 [6, 16] | IC50 [1, 7] | IC50 [2, 8] | IC50 [4, 9] | IC50 [5, 10] | IC50 [6, 11]
1 | Cc1cc(C(C)Nc2ccccc2C(=O)O)c2nc(C)cc(=O)n2c1 (stereo not drawn) [Example 6-1, 2-((1-(2,7-dimethyl-4-oxo-4H-pyrido[1,2-a]pyrimidin-9-yl)ethyl)amino)benzoic acid] | > 10000 nM | – | – | – | – | – | > 10000 nM | > 10000 nM | > 10000 nM | > 10000 nM | 3370 nM
2 | C=CC(=O)NC(C)c1cc(C)cn2c(=O)cc(N3CCCCC3)nc12 (stereo not drawn) [Example 4-1, N-(1-(7-methyl-4-oxo-2-(piperidin-1-yl)-4H-pyrido[1,2-a]pyrimidin-9-yl)ethyl)acrylamide] | > 10000 nM | > 10000 nM | > 10000 nM | > 10000 nM | > 10000 nM | > 10000 nM | – | – | – | – | –
3 | COc1ccc(NC(C)c2cc(C)cn3c(=O)cc(N4CCCCC4)nc23)c(C(=O)O)c1 (stereo not drawn) [Example 3-5, 5-methoxy-2-((1-(7-methyl-4-oxo-2-(piperidin-1-yl)-4H-pyrido[1,2-a]pyrimidin-9-yl)ethyl)amino)benzoic acid] | > 10000 nM | > 10000 nM | > 10000 nM | > 10000 nM | > 10000 nM | 1800 nM | – | – | – | – | –
4 | Cc1cc(C(C)Nc2ccccc2C(=O)O)c2nc(-c3ccccc3)cc(=O)n2c1 (stereo not drawn) [Example 7-1, 2-((1-(7-methyl-4-oxo-2-phenyl-4H-pyrido[1,2-a]pyrimidin-9-yl)ethyl)amino)benzoic acid] | 6650 nM | – | – | – | – | – | > 10000 nM | > 10000 nM | 6420 nM | 3140 nM | 13.3 nM
5 | Cc1cc(C(C)Nc2ccccc2C#N)c2nc(N3CCCCC3)cc(=O)n2c1 (stereo not drawn) [Example 3-11, 2-((1-(7-methyl-4-oxo-2-(piperidin-1-yl)-4H-pyrido[1,2-a]pyrimidin-9-yl)ethyl)amino)benzonitrile] | > 10000 nM | > 10000 nM | > 10000 nM | > 10000 nM | > 10000 nM | > 10000 nM | – | – | – | – | –
6 | Cc1cc([C@@H](C)Nc2ccccc2C(=O)O)c2nc(N3CCC(C)(C)CC3)cc(=O)n2c1 (single isomer, unassigned) [Example 5-5] | > 10000 nM | > 10000 nM | > 10000 nM | > 10000 nM | 8020 nM | 1210 nM | – | – | – | – | –
7 | Cc1cc([C@@H](C)Nc2ccccc2C(=O)O)c2nc(N3Cc4ccccc4C3)c(C)c(=O)n2c1 (single isomer, unassigned) [Example 5-9-2] | > 10000 nM | > 10000 nM | > 10000 nM | > 10000 nM | 9680 nM | 3010 nM | – | – | – | – | –

Now from value to molecule, other results behind:

Row | IC50 [3] | IC50 [1, 12] | IC50 [2, 13] | IC50 [4, 14] | IC50 [5, 15] | IC50 [6, 16] | Structure (SMILES) | IC50 [1, 7] | IC50 [2, 8] | IC50 [4, 9] | IC50 [5, 10] | IC50 [6, 11]
8 | > 10000 nM | > 10000 nM | 9770 nM | > 10000 nM | > 10000 nM | > 10000 nM | Cc1cc(C(C)Nc2cccc3cn[nH]c23)c2nc(N3CCCCC3)cc(=O)n2c1 (stereo not drawn) [Example 3-17, 9-(1-((1H-indazol-7-yl)amino)ethyl)-7-methyl-2-(piperidin-1-yl)-4H-pyrido[1,2-a]pyrimidin-4-one] | – | – | – | – | –
9 | > 10000 nM | > 10000 nM | > 10000 nM | > 10000 nM | > 10000 nM | 2740 nM | COc1cccc(NC(C)c2cc(C)cn3c(=O)cc(N4CCCCC4)nc23)c1C(=O)O (stereo not drawn) [Example 3-3, 2-methoxy-6-((1-(7-methyl-4-oxo-2-(piperidin-1-yl)-4H-pyrido[1,2-a]pyrimidin-9-yl)ethyl)amino)benzoic acid] | – | – | – | – | –
10 | > 10000 nM | 3280 nM | 2950 nM | > 10000 nM | 2630 nM | 34.1 nM | CC(Nc1ccccc1C(=O)O)c1cc(C(F)F)cn2c(=O)cc(N3CCCCC3)nc12 (stereo not drawn) [Example 5-7, 2-((1-(7-(difluoromethyl)-4-oxo-2-(piperidin-1-yl)-4H-pyrido[1,2-a]pyrimidin-9-yl)ethyl)amino)benzoic acid] | – | – | – | – | –
11 | > 10000 nM | > 10000 nM | > 10000 nM | 755 nM | > 10000 nM | 1910 nM | Cc1cc([C@H](C)Nc2ccccc2C(=O)O)c2nc(N3CCCCC3)cc(=O)n2c1 (single isomer, unassigned) [Example 3-2] | – | – | – | – | –
12 | 7070 nM | > 10000 nM | > 10000 nM | 1950 nM | 980 nM | 13.5 nM | Cc1cc([C@H](C)Nc2ccccc2C(=O)O)c2nc(N3CCC(C)(C)CC3)cc(=O)n2c1 (single isomer, unassigned) [Example 5-4] | – | – | – | – | –
13 | > 10000 nM | > 10000 nM | > 10000 nM | > 10000 nM | > 10000 nM | > 10000 nM | Cc1cc(C(C)Nc2ccccc2)c2nc(N3CCCCC3)cc(=O)n2c1 (stereo not drawn) [Example 1, 7-methyl-9-(1-(phenylamino)ethyl)-2-(piperidin-1-yl)-4H-pyrido[1,2-a]pyrimidin-4-one] | – | – | – | – | –
14 | > 10000 nM | > 10000 nM | > 10000 nM | > 10000 nM | 2580 nM | 21.2 nM | Cc1cc(C(C)Nc2ccccc2C(=O)O)c2nc(C3CCOCC3)cc(=O)n2c1 (stereo not drawn) [Example 9-1, 2-((1-(7-methyl-4-oxo-2-(tetrahydro-2H-pyran-4-yl)-4H-pyrido[1,2-a]pyrimidin-9-yl)ethyl)amino)benzoic acid] | – | – | – | – | –
15 | > 10000 nM | > 10000 nM | > 10000 nM | > 10000 nM | > 10000 nM | > 10000 nM | Cc1cc(C(C)Nc2ccccc2C(=O)N(C)C)c2nc(N3CCCCC3)cc(=O)n2c1 (stereo not drawn) [Example 3-15, N,N-dimethyl-2-((1-(7-methyl-4-oxo-2-(piperidin-1-yl)-4H-pyrido[1,2-a]pyrimidin-9-yl)ethyl)amino)benzamide] | – | – | – | – | –
